Results as given in ChEMBL document CHEMBL1137009, “Inhibition of sphingosine-1-phosphate lyase for the treatment of autoimmune disorders” (J Med Chem, 2009).

Experiments:
[1] = (§1) AUC (0 to infinity) in 129/SvEvBrd x C57BL/6 hybrid mouse at 10 mg/kg, po; assay type: ADME, organism-based, Plasma; set-up: time infinity, dose 10 mg/kg, route oral; conditions: 129/SvEvBrd x C57BL/6 hybrid, plasma
[2] = (§2) Oral bioavailability in 129/SvEvBrd x C57BL/6 hybrid mouse at 1 mg/kg, iv and 10 mg/kg, po; assay type: ADME, organism-based; conditions: 129/SvEvBrd x C57BL/6 hybrid, in vivo
[3] = Permeability across human Caco-2 cell membrane at 20 uM; assay type: ADME, cell-based; conditions: read-out: permeability
[4] = tested on: Mus musculus; assay: Induction of lymphopenia in 129/SvEvBrd x C57BL/6 hybrid mouse assessed as change in circulating lymphocyte level at 100 mg/kg, po administered as single dose after 18 hrs by complete blood count analysis relative to control; assay type: functional
[5] = Clearance in 129/SvEvBrd x C57BL/6 hybrid mouse at 1 mg/kg, iv; assay type: ADME, organism-based; set-up: dose 1 mg/kg, route intravenous; conditions: in vivo
[6] = Half life in 129/SvEvBrd x C57BL/6 hybrid mouse; assay type: ADME, organism-based; conditions: in vivo
[7] = tested on: Mus musculus; assay: as §1; assay type: ADME, organism-based, Plasma; set-up: time infinity, dose 10 mg/kg, route oral; conditions: in vivo
[8] = tested on: Mus musculus; assay: Induction of lymphopenia in 129/SvEvBrd x C57BL/6 hybrid mouse assessed as change in circulating lymphocyte level at 30 mg/kg, po administered as single dose after 18 hrs by complete blood count analysis relative to control; assay type: functional
[9] = tested on: Mus musculus; assay: as §2; assay type: ADME, organism-based; conditions: in vivo
[10] = tested on: Mus musculus; assay: Toxicity in 129/SvEvBrd x C57BL/6 hybrid mouse at 100 mg/kg, po; assay type: organism-based; set-up: dose 100 mg/kg, route oral; conditions: in vivo
[11] = tested on: Mus musculus; assay: Induction of lymphopenia in 129/SvEvBrd x C57BL/6 hybrid mouse assessed as reduction in lymphocyte level from peripheral circulation at 10 mg/kg by complete blood count analysis; assay type: functional; set-up: scale not given: the % may be the effect or the level left

Compound	AUC(0-inf) [1]	bioavailability [2]	Papp at 20 µM [3]	Activity [4]	clearance [5]	half-life [6]	AUC [7]	Activity [8]	F [9]	Activity [10]	Activity [11]
OC[C@@H](O)[C@@H](O)[C@H](O)c1c[nH]c(-c2ncc[nH]2)n1	5.9 µM·h	28%	25.9 ×10⁻⁶ cm/s	-53%	31.5 mL/min/kg	3.2 h					
OC[C@@H](O)[C@@H](O)[C@H](O)c1c[nH]c(C(F)(F)C(F)(F)F)n1						1.7 h	10 µM·h	-11%	31%		
Cc1scnc1-c1nc([C@@H](O)[C@H](O)[C@H](O)CO)c[nH]1			4.9 ×10⁻⁶ cm/s	-7%							
OC[C@@H](O)[C@@H](O)[C@H](O)c1c[nH]c(-c2cnccn2)n1	4.7 µM·h	10%	19.8 ×10⁻⁶ cm/s	-6%	13.4 mL/min/kg	1.9 h					
CC(F)(F)c1nc([C@@H](O)[C@H](O)[C@H](O)CO)c[nH]1	4.7 µM·h		11.1 ×10⁻⁶ cm/s			1 h		-58%		Toxic	
OC[C@@H](O)[C@@H](O)[C@H](O)c1c[nH]c(-c2ncn(Cc3ccccc3)n2)n1	1.7 µM·h	6%	5.1 ×10⁻⁶ cm/s	-41%	16.4 mL/min/kg	2.4 h					
CC(O)c1nc([C@@H](O)[C@H](O)[C@H](O)CO)c[nH]1 (stereo not given in full)			4.1 ×10⁻⁶ cm/s	-15%		4.4 h	44.5 µM·h		22%		
Cc1nc(-c2nc([C@@H](O)[C@H](O)[C@H](O)CO)c[nH]2)cs1	6.9 µM·h	23%	19.9 ×10⁻⁶ cm/s	0%	19.4 mL/min/kg	2.1 h					
CCCCCCCCc1ccc(CCC(N)(CO)CO)cc1 [FINGOLIMOD]											90%
CC(=O)c1nc([C@@H](O)[C@H](O)[C@H](O)CO)c(-c2ccccc2)[nH]1	11.5 µM·h	49.6%	3.11 ×10⁻⁶ cm/s	40%	23.9 mL/min/kg	1.9 h					
CC(=O)c1nc([C@@H](O)[C@H](O)[C@H](O)CO)cn1C	41.1 µM·h	33.6%	5.57 ×10⁻⁶ cm/s	10%	5.7 mL/min/kg	2.4 h					
Cn1cnc(-c2nc([C@@H](O)[C@H](O)[C@H](O)CO)c[nH]2)c1	2.6 µM·h	3%	26.2 ×10⁻⁶ cm/s	-5%	9.1 mL/min/kg	1.6 h					
O=C(c1ccccc1)c1nc([C@@H](O)[C@H](O)[C@H](O)CO)c[nH]1	6 µM·h	14%			13.5 mL/min/kg	4 h		-17%			
CO[C@H](c1c[nH]c(C(C)=O)n1)[C@H](O)[C@H](O)CO	42.7 µM·h	42%		16%	6.8 mL/min/kg	3.3 h					
OC[C@@H](O)[C@@H](O)[C@H](O)c1c[nH]c(-c2ncon2)n1	3.2 µM·h	5%	14.1 ×10⁻⁶ cm/s	-16%	11.3 mL/min/kg	0.7 h					
